Data from patent US12187729B2, “Compounds having PDE9A inhibitory activity, and pharmaceutical uses thereof” (KOREA RESEARCH INSTITUTE OF CHEMICAL TECHNOLOGY, priority 2018, dated 2025).

Target: PDE9A (Homo sapiens (Human), UniProt O76083)
Experiment: PDE9A inhibitory activity, fluorescence polarization assay (IMAP-FP screening express kit)
Format: biochemical
Settings: enzyme PDE9A 5 ng/ml, Fl-cGMP substrate 100 nM, room temperature 1 hour
Method: The inhibitory activity of the representative compounds according to the present invention against phosphodiesterase 9A was tested based on the polarization assay (IMAP-FP screening express kit) provided by MDS (MDS Analytical Technologies, Sunyvale, CA, USA). As a buffer solution, a reaction solution (a reaction solution containing 0.01% Tween 20 provided by MDS was diluted 5 times, then 5 mM DTT is added) and a polarization detection solution (binding solution A and B provided by MDS were mixed at a ratio of 3:1 and IMAP binding reagent 1/600 was added) were prepared. 100 μM of the substrate (Fl-cGMP substrate; MDS) and 3.6 μg/ml of the enzyme PDE9A (ab54113; abeam) were prepared. 3.6 μg/ml PDE9A and 100 μM substrate were diluted to 20 ng/ml (final reaction concentration: 5 ng/ml) and 400 nM (final reaction concentration: 100 nM), respectively. The buffer solution used for all dilution and preparation processes was 1× reaction solution with 1 mM DTT added, and the polarization detection solution was used to induce polarization at the end.
The prepared samples were dispensed on black microplates (Multiwell 384 well plates, #3573, Corning Life Sciences, Lowell, MA, USA) using a 16-channel pipette (multi 16-channel, Finnpipette, Thermo Scientific, Essex, UK). The total reaction volume per well is 20 μl. At this time, 10 μl of 2% DMSO, 5 μl of substrate solution, and 5 μl of reaction solution were used as a negative control, and 10 μl of 2% DMSO, 5 μl of substrate solution, and 5 μl of PDE9A solution were used as a positive control. As the experimental group, 10 μl of the compound prepared in Example, 5 μl of the substrate solution, and 5 μl of the PDE9A solution were used. After pretreatment between the compound and the enzyme was performed for about […] before the enzyme-substrate reaction, 5 μl of cGMP was added to induce the enzyme reaction. During the reaction, each compound, enzyme, and substrate occupied 50%, 25%, and 25% of the total volume, respectively, and they were prepared at high concentrations of 2, 4, and 4 times, respectively, immediately before addition. After the enzymatic reaction, it was shaken lightly for 1 minute and the enzyme reaction was induced at room temperature for 1 hour. Then, 60 μl of a polarization detection solution prepared in advance was added to induce polarization.
Nanoparticles composed of trivalent metal ions are mixed in the fluorescence detection solution, which combines with phosphoric acid expose by enzymatic reaction to increase the molecular weight and induce polarization. After leaving for 2 hours at room temperature, the polarization (Fluorescence Polarization, FP) value was measured using a multilabel counter (Envision, PerkinElmer, Turku, Finland) (emission wavelength: P-535 nm, S-535 nm, excitation wavelength: 480 nm), and the result was expressed as an IC50 value, which is the concentration of the compound that inhibited PDE9A by 50% in vitro (Table 2).

Sequence of PDE9A (O76083 whole entry): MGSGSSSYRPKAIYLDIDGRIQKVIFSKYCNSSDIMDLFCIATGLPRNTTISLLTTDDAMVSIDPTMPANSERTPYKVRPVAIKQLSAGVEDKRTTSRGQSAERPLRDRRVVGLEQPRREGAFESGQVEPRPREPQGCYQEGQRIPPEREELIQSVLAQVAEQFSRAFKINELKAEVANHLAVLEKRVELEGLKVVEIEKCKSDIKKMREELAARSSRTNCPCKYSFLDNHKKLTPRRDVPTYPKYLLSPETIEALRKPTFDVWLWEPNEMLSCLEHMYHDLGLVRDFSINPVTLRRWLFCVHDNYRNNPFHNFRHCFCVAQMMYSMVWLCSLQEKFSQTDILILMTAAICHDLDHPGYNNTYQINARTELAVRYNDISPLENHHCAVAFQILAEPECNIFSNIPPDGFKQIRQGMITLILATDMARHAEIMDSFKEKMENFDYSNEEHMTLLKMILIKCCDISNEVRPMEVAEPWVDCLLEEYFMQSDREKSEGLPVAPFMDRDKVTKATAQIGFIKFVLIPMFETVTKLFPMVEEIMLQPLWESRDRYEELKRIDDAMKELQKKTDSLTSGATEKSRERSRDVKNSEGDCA

Compound | IC50
O=C(CSc1nc2c(cnn2-c2ccccc2)c(=O)[nH]1)Nc1nnc(-c2ccc(F)cc2)s1 [Example 23, N-(5-(4-fluorophenyl)-1,3,4-thiadiazol-2-yl)-2-((4-oxo-1-phenyl-4,5-dihydro-1H-pyrazolo[3,4-d]pyrimidin-6-yl)thio)acetamide] | 10 nM
Cc1ccc(CSc2nnc(NC(=O)CSc3nc4c(cnn4-c4ccccc4)c(=O)[nH]3)s2)cc1 [Example 9] | 15 nM
CCSc1nnc(NC(=O)CSc2nc3c(cnn3C3CC3)c(=O)[nH]2)s1 [Example 40, N-(5-(ethylthio)-1,3,4-thiadiazol-2-yl)-2-((1-cyclopropyl-4-oxo-4,5-dihydro-1H-pyrazolo[3,4-d]pyrimidin-6-yl)thio)acetamide] | 39 nM
CCc1nnc(NC(=O)CSc2nc3c(cnn3-c3ccccc3)c(=O)[nH]2)s1 [Example 5, N-(5-ethyl-1,3,4-thiadiazol-2-yl)-2-((4-oxo-1-phenyl-4,5-dihydro-1H-pyrazolo[3,4-d]pyrimidin-6-yl)thio)acetamide] | 180 nM
N-(5-(isopropylthio)-1,3,4-thiadiazol-2-yl)-2-((4-oxo-1-phenyl-4,5-dihydro-1H-pyrazolo[3,4-d]pyrimidin-6-yl)thio)acetamide [Example 14] | 9 nM
O=C(CSc1nc2c(cnn2C2CC2)c(=O)[nH]1)Nc1nnc(Cl)s1 [Example 44, N-(5-chloro-1,3,4-thiadiazol-2-yl)-2-((1-cyclopropyl-4-oxo-4,5-dihydro-1H-pyrazolo[3,4-d]pyrimidin-6-yl)thio)acetamide] | 36 nM
O=C(CSc1nc2c(cnn2-c2ccccc2)c(=O)[nH]1)Nc1nnc(-c2ccccc2)s1 [Example 25, N-(5-phenyl-1,3,4-thiadiazol-2-yl)-2-((4-oxo-1-phenyl-4,5-dihydro-1H-pyrazolo[3,4-d]pyrimidin-6-yl)thio)acetamide] | 12 nM
N-(5-(methylthio)-1,3,4-thiadiazol-2-yl)-2-((4-oxo-1-phenyl-4,5-dihydro-1H-pyrazolo[3,4-d]pyrimidin-6-yl)thio)acetamide [Example 13] | 29 nM
CCSc1nnc(NC(=O)C(C)Sc2nc3c(cnn3-c3ccccc3)c(=O)[nH]2)s1 (stereo not shown) [Example 11, N-(5-(ethylthio)-1,3,4-thiadiazol-2-yl)-2-((4-oxo-1-phenyl-4,5-dihydro-1H-pyrazolo[3,4-d]pyrimidin-6-yl)thio)propanamide] | 10 nM
CCSc1nnc(NC(=O)CSc2nc3c(cnn3-c3ccccc3)c(=O)[nH]2)s1 [Example 2, N-(5-(ethylthio)-1,3,4-thiadiazol-2-yl)-2-((4-oxo-1-phenyl-4,5-dihydro-1H-pyrazolo[3,4-d]pyrimidin-6-yl)thio)acetamide] | 10 nM

Now those with a lower IC50, led by results:

IC50 | Compound
1 nM | CCSc1nnc(NC(=O)CSc2nc3c(cnn3C3CCCCC3)c(=O)[nH]2)s1 [Example 34, N-(5-(ethylthio)-1,3,4-thiadiazol-2-yl)-2-((4-oxo-1-cyclohexyl-4,5-dihydro-1H-pyrazolo[3,4-d]pyrimidin-6-yl)thio)acetamide]
0.4 nM | O=C(CSc1nc2c(cnn2C2CCC(F)(F)CC2)c(=O)[nH]1)Nc1nnc(Br)s1 [Example 21, 2-((1-(4,4-difluorocyclohexyl)-4-oxo-4,5-dihydro-1H-pyrazolo[3,4-d]pyrimidin-6-yl)thio)-N-(5-bromo-1,3,4-thiadiazol-2-yl)acetamide]
0.7 nM | O=C(CSc1nc2c(cnn2C2CCOCC2)c(=O)[nH]1)Nc1nnc(Cl)s1 [Example 36, N-(5-chloro-1,3,4-thiadiazol-2-yl)-2-((4-oxo-1-(tetrahydro-2H-pyran-4-yl)-4,5-dihydro-1H-pyrazolo[3,4-d]pyrimidin-6-yl)thio)acetamide]
0.3 nM | CC(Sc1nc2c(cnn2C2CCC(F)(F)CC2)c(=O)[nH]1)C(=O)Nc1nnc(Cl)s1 (stereo not shown) [Example 48, N-(5-chloro-1,3,4-thiadiazol-2-yl)-2-((1-(4,4-difluorocyclohexyl)-4-oxo-4,5-dihydro-1H-pyrazolo[3,4-d]pyrimidin-6-yl)thio)propanamide]
1 nM | O=C(CSc1nc2c(cnn2C2CCSCC2)c(=O)[nH]1)Nc1nnc(Cl)s1 [Example 39, N-(5-chloro-1,3,4-thiadiazol-2-yl)-2-((4-oxo-1-(tetrahydro-2H-thiopyran-4-yl)-4,5-dihydro-1H-pyrazolo[3,4-d]pyrimidin-6-yl)thio)acetamide]
3 nM | CC(C)n1ncc2c(=O)[nH]c(SCC(=O)Nc3nnc(Br)s3)nc21 [Example 38, N-(5-bromo-1,3,4-thiadiazol-2-yl)-2-((1-isopropyl-4-oxo-4,5-dihydro-1H-pyrazolo[3,4-d]pyrimidin-6-yl)thio)acetamide]
1 nM | O=C(CSc1nc2c(cnn2C2CCCCC2)c(=O)[nH]1)Nc1nnc(Cl)s1 [Example 42, N-(5-chloro-1,3,4-thiadiazol-2-yl)-2-((4-oxo-1-cyclohexyl-4,5-dihydro-1H-pyrazolo[3,4-d]pyrimidin-6-yl)thio)acetamide]
0.1 nM | CC(Sc1nc2c(cnn2C2CCOCC2)c(=O)[nH]1)C(=O)Nc1nnc(Cl)s1 (stereo not shown) [Example 47, N-(5-chloro-1,3,4-thiadiazol-2-yl)-2-((4-oxo-1-(tetrahydro-2H-pyran-4-yl)-4,5-dihydro-1H-pyrazolo[3,4-d]pyrimidin-6-yl)thio)propanamide]
3 nM | CC(C)n1ncc2c(=O)[nH]c(SCC(=O)Nc3nnc(Cl)s3)nc21 [Example 43, N-(5-chloro-1,3,4-thiadiazol-2-yl)-2-((1-isopropyl-4-oxo-4.5-dihydro-1H-pyrazolo[3,4-d]pyrimidin-6-yl)thio)acetamide]
0.1 nM | CCSc1nnc(NC(=O)C(C)Sc2nc3c(cnn3C3CCC(F)(F)CC3)c(=O)[nH]2)s1 (stereo not shown) [Example 28, 2-((1-(4,4-difluorocyclohexyl)-4-oxo-4,5-dihydro-1H-pyrazolo[3,4-d]pyrimidin-6-yl)thio)-N-(5-(ethylthio)-1,3,4-thiadiazol-2-yl)propanamide]
0.3 nM | CCSc1nnc(NC(=O)CSc2nc3c(cnn3C3CCSCC3)c(=O)[nH]2)s1 [Example 29, N-(5-(ethylthio)-1,3,4-thiadiazol-2-yl)-2-((4-oxo-1-(tetrahydro-2H-thiopyran-4-yl)-4,5-dihydro-1H-pyrazolo[3,4-d]pyrimidin-6-yl)thio)acetamide]
0.5 nM | CCSc1nnc(NC(=O)CSc2nc3c(cnn3C3CCOCC3)c(=O)[nH]2)s1 [Example 27, N-(5-(ethylthio)-1,3,4-thiadiazol-2-yl)-2-((4-oxo-1-(tetrahydro-2H-pyran-4-yl)-4,5-dihydro-1H-pyrazolo[3,4-d]pyrimidin-6-yl)thio)acetamide]
